Results taken from patent publication US20070049593A1 (priority 2004, published 2007).
Where a name gives a salt, the structure may show the parent alone. Read-outs that look alike come from different tables or passages of the source.

Target: T1, HCV polymerase (Hepatitis C virus genotype 1b, UniProt P26663)
T1 construct: a region encoding NS5B (J Virol 1991 March, 65(3), 1105-13, 544 amino acids after deletion of 47 amino acids on the C-terminal); 6xHis (C); made in house; host or cells: Escherichia coli
Test: biochemical
Parameters: species or system HCV BK strain
Procedure, shortened: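 His-tagged NS5B (BK strain, 47-aa C-terminal deletion, E. coli-expressed) at 0.5 μg/ml copied 5 μg/ml run-off RNA bearing the HCV 3′ UTR with 2 μM UTP plus [3H]UTP, 50 μM ATP/GTP, in pH 7.5 Tris with 5 mM MgCl2, 25 °C, 90 min. TCA-precipitated RNA was counted and IC50 calculated.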

T1 sequence (P26663 2420-2963): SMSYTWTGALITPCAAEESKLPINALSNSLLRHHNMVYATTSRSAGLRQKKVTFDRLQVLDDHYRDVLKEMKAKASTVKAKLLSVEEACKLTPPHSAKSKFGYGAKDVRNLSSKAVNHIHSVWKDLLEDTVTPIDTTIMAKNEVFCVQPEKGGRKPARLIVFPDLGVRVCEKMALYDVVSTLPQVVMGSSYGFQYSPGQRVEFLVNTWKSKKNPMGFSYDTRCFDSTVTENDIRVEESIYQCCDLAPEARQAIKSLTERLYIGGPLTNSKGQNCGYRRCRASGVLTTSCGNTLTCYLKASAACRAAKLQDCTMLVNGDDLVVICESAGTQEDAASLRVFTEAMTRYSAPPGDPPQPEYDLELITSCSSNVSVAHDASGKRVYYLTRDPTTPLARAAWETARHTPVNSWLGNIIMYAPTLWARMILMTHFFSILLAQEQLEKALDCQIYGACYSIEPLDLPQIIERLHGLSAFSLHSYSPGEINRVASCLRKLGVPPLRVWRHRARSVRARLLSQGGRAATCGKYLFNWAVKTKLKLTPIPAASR

SMILES	IC50 [µM]	IC50 (read-out: HCV polymerase inhibitory activity IC50, 25° C., 90 min, [5,6-3H]UTP incorporation into RNA) [µM]
O=C(O)c1ccc2c(C3CCCCC3)c3n(c2c1)CCN(CC(=O)N1CCCCC1)c1cc(F)ccc1-3 [Example 1-114, 13-cyclohexyl-3-fluoro-5-[2-oxo-2-(piperidin-1-yl)ethyl]-6,7-dihydro-5H-benzo[5,6][1,4]diazepino[7,1-a]indole-10-carboxylic acid monohydrochloride]	< 0.1	
Cc1ccc2c(c1)N(CC(=O)N1CCCCC1)CCn1c-2c(C2CCCCC2)c2ccc(C(=O)O)cc21 [Example 1-115, 13-cyclohexyl-3-methyl-5-[2-oxo-2-(piperidin-1-yl)ethyl]-6,7-dihydro-5H-benzo[5,6][1,4]diazepino[7,1-a]indole-10-carboxylic acid monohydrochloride]	< 0.1	
O=C(O)c1ccc2c(C3CCCCC3)c3n(c2c1)CCN(CCN1CCCCC1)c1cc(F)ccc1-3 [Example 1-116, 13-cyclohexyl-3-fluoro-5-[2-(piperidin-1-yl)ethyl]-6,7-dihydro-5H-benzo[5,6][1,4]diazepino[7,1-a]indole-10-carboxylic acid dihydrochloride]	< 0.1	
CCN1CCN(C(=O)CN2CCn3c(c(C4CCCCC4)c4ccc(C(=O)O)cc43)-c3ccc(C)cc32)CC1 [Example 1-117, 13-cyclohexyl-5-[2-(4-ethylpiperazin-1-yl)-2-oxoethyl]-3-methyl-6,7-dihydro-5H-benzo[5,6][1,4]diazepino[7,1-a]indole-10-carboxylic acid dihydrochloride]	< 0.1	
CC(=O)N1CCC(CN2CCn3c(c(C4CCCCC4)c4ccc(C(=O)O)cc43)-c3ccccc32)CC1 [Example 1-118, 5-(1-acetylpiperidin-4-ylmethyl)-13-cyclohexyl-6,7-dihydro-5H-benzo[5,6][1,4]diazepino[7,1-a]indole-10-carboxylic acid monohydrochloride]	< 0.1	
CC(C)N1CCC(CCN2CCn3c(c(C4CCCCC4)c4ccc(C(=O)O)cc43)-c3ccccc32)CC1 [Example 1-119, 13-cyclohexyl-5-[2-(1-isopropylpiperidin-4-yl)ethyl]-6,7-dihydro-5H-benzo[5,6][1,4]diazepino[7,1-a]indole-10-carboxylic acid dihydrochloride]	< 0.1	
O=C(O)c1ccc2c(C3CCCCC3)c3n(c2c1)CCN(CC1CCOCC1)c1ccccc1-3 [Example 1-120, 13-cyclohexyl-5-(tetrahydropyran-4-ylmethyl)-6,7-dihydro-5H-benzo[5,6][1,4]diazepino[7,1-a]indole-10-carboxylic acid monohydrochloride]	< 0.1	
CC1CCCN(C(=O)CN2CCn3c(c(C4CCCCC4)c4ccc(C(=O)O)cc43)-c3ccccc32)C1 (stereo not drawn) [Example 1-122, 13-cyclohexyl-5-[2-(3-methylpiperidin-1-yl)-2-oxoethyl]-6,7-dihydro-5H-benzo[5,6][1,4]diazepino[7,1-a]indole-10-carboxylic acid monohydrochloride]	< 0.1	
CCN1CCC(=CCN2CCn3c(c(C4CCCCC4)c4ccc(C(=O)O)cc43)-c3ccccc32)CC1 [Example 1-123, 13-cyclohexyl-5-[2-(1-ethylpiperidin-4-ylidene)ethyl]-6,7-dihydro-5H-benzo[5,6][1,4]diazepino[7,1-a]indole-10-carboxylic acid dihydrochloride]	< 0.1	
CC(C)C1CCN(C(=O)CN2CCn3c(c(C4CCCCC4)c4ccc(C(=O)O)cc43)-c3ccccc32)CC1 [Example 1-124, 13-cyclohexyl-5-[2-(4-isopropylpiperidin-1-yl)-2-oxoethyl]-6,7-dihydro-5H-benzo[5,6][1,4]diazepino[7,1-a]indole-10-carboxylic acid monohydrochloride]	< 0.1	
COC1CCCN(C(=O)CN2CCn3c(c(C4CCCCC4)c4ccc(C(=O)O)cc43)-c3ccccc32)C1 (stereo not drawn) [Example 1-125, 13-cyclohexyl-5-[2-(3-methoxypiperidin-1-yl)-2-oxoethyl]-6,7-dihydro-5H-benzo[5,6][1,4]diazepino[7,1-a]indole-10-carboxylic acid monohydrochloride]	< 0.1	
O=C(O)c1ccc2c(C3CCCCC3)c3n(c2c1)CCN(Cc1ccccn1)c1ccccc1-3 [Example 1-126, 13-cyclohexyl-5-(pyridin-2-ylmethyl)-6,7-dihydro-5H-benzo[5,6][1,4]diazepino[7,1-a]indole-10-carboxylic acid dihydrochloride]	< 0.1	
CCCS(=O)(=O)NC(=O)c1ccc2c(C3CCCCC3)c3n(c2c1)CCN(CC(=O)N1CCN(CC)CC1)c1ccccc1-3 [Example 1-129, N-{13-cyclohexyl-5-[2-(4-ethylpiperazin-1-yl)-2-oxoethyl]-6,7-dihydro-5H-benzo[5,6][1,4]diazepino[7,1-a]indole-10-carbonyl}propane-1-sulfonamide dihydrochloride]	< 0.1	
CCN1CCC(CN2CCn3c(c(C4CCCCC4)c4ccc(C(=O)O)cc43)-c3ccccc32)CC1 [Example 1-130, 13-cyclohexyl-5-(1-ethylpiperidin-4-ylmethyl)-6,7-dihydro-5H-benzo[5,6][1,4]diazepino[7,1-a]indole-10-carboxylic acid]	< 0.1	
O=C(O)c1ccc2c(C3CCCCC3)c3n(c2c1)CCN(CC(=O)N1CCCCCCC1)c1ccccc1-3 [Example 1-131, 5-[2-(azocan-1-yl)-2-oxoethyl]-13-cyclohexyl-6,7-dihydro-5H-benzo[5,6][1,4]diazepino[7,1-a]indole-10-carboxylic acid]	< 0.1	
O=C(O)c1ccc2c(C3CCCCC3)c3n(c2c1)CCN(CC(=O)N1CCCCCCCC1)c1ccccc1-3 [Example 1-132, 5-[2-(azonan-1-yl)-2-oxoethyl]-13-cyclohexyl-6,7-dihydro-5H-benzo[5,6][1,4]diazepino[7,1-a]indole-10-carboxylic acid]	< 0.1	
CCN1CCC(CN2CCn3c(c(C4CCCCC4)c4ccc(C(=O)O)cc43)-c3ccccc32)CC1 [Example 1-133, 13-cyclohexyl-5-(1-ethylpiperidin-4-ylmethyl)-6,7-dihydro-5H-benzo[5,6][1,4]diazepino[7,1-a]indole-10-carboxylic acid dihydrochloride]		< 0.1
O=C(O)c1ccc2c(C3CCCCC3)c3n(c2c1)CCN(Cc1ccncc1)c1ccccc1-3 [Example 1-134, 13-cyclohexyl-5-(pyridin-4-ylmethyl)-6,7-dihydro-5H-benzo[5,6][1,4]diazepino[7,1-a]indole-10-carboxylic acid dihydrochloride]	< 0.1	
O=C(O)c1ccc2c(C3CCCCC3)c3n(c2c1)CCN(Cc1cccnc1)c1ccccc1-3 [Example 1-135, 13-cyclohexyl-5-(pyridin-3-ylmethyl)-6,7-dihydro-5H-benzo[5,6][1,4]diazepino[7,1-a]indole-10-carboxylic acid dihydrochloride]	< 0.1	
O=C(O)c1ccc2c(C3CCCCC3)c3n(c2c1)CCN(CC(=O)N1CC=CCC1)c1ccccc1-3 [Example 1-136, 13-cyclohexyl-5-[2-(3,6-dihydro-2H-pyridin-1-yl)-2-oxoethyl]-6,7-dihydro-5H-benzo[5,6][1,4]diazepino[7,1-a]indole-10-carboxylic acid]	< 0.1	
CC1CCCCN1C(=O)CN1CCn2c(c(C3CCCCC3)c3ccc(C(=O)O)cc32)-c2ccccc21 (stereo not drawn) [Example 1-137, 13-cyclohexyl-5-[2-(2-methylpiperidin-1-yl)-2-oxoethyl]-6,7-dihydro-5H-benzo[5,6][1,4]diazepino[7,1-a]indole-10-carboxylic acid]	< 0.1	
O=C(O)c1ccc2c(C3CCCCC3)c3n(c2c1)CCN(CC(=O)N1CCc2ccccc2C1)c1ccccc1-3 [Example 1-138, 13-cyclohexyl-5-[2-(3,4-dihydro-1H-isoquinolin-2-yl)-2-oxoethyl]-6,7-dihydro-5H-benzo[5,6][1,4]diazepino[7,1-a]indole-10-carboxylic acid monohydrochloride]	< 0.1	
O=C(O)c1ccc2c(C3CCCCC3)c3n(c2c1)CCN(CC(=O)N1CCCC2CCCCC21)c1ccccc1-3 (stereo not drawn) [Example 1-139, 13-cyclohexyl-5-[2-(octahydroquinolin-1-yl)-2-oxoethyl]-6,7-dihydro-5H-benzo[5,6][1,4]diazepino[7,1-a]indole-10-carboxylic acid monohydrochloride]	< 0.1	
O=C(O)c1ccc2c(C3CCCCC3)c3n(c2c1)CCN(CC(=O)N1Cc2ccccc2C1)c1ccccc1-3 [Example 1-140, 13-cyclohexyl-5-[2-(1,3-dihydroisoindol-2-yl)-2-oxoethyl]-6,7-dihydro-5H-benzo[5,6][1,4]diazepino[7,1-a]indole-10-carboxylic acid monohydrochloride]	< 0.1	
O=C(O)c1ccc2c(C3CCCCC3)c3n(c2c1)CCN(CC(=O)N1CCC2CCCCC2C1)c1ccccc1-3 (stereo not drawn) [Example 1-141, 13-cyclohexyl-5-[2-(octahydroisoquinolin-2-yl)-2-oxoethyl]-6,7-dihydro-5H-benzo[5,6][1,4]diazepino[7,1-a]indole-10-carboxylic acid monohydrochloride]	< 0.1	
O=C(O)c1ccc2c(C3CCCCC3)c3n(c2c1)CCN(CCN1CCc2ccccc2C1)c1ccccc1-3 [Example 1-142, 13-cyclohexyl-5-[2-(3,4-dihydro-1H-isoquinolin-2-yl)ethyl]-6,7-dihydro-5H-benzo[5,6][1,4]diazepino[7,1-a]indole-10-carboxylic acid dihydrochloride]	< 0.1	
CC1CCCN(CCN2CCn3c(c(C4CCCCC4)c4ccc(C(=O)O)cc43)-c3ccccc32)C1 (stereo not drawn) [Example 1-143, 13-cyclohexyl-5-[2-(3-methylpiperidin-1-yl)ethyl]-6,7-dihydro-5H-benzo[5,6][1,4]diazepino[7,1-a]indole-10-carboxylic acid dihydrochloride]	< 0.1	
